By IC50 is commonly meant the concentration that gives 50% inhibition.

Bounds are passed on as bounds.

For 34 compounds, IC50 results are on record in patent US12384776B2, “Compounds and uses thereof” (Foghorn Therapeutics Inc., priority 2019, dated 2025).

One test addresses BRD9 bromodomain (Homo sapiens (Human), UniProt Q9H8M2). The test can be described thus: BRD9 bromodomain TR-FRET competition binding assay. As to the method: Procedure: His-Flag-BRD9 (P133-K239; Swiss Prot Q9H8M2; SEQ ID NO:1 mgsshhhhhhenlyfq/gdykddddkgslevlfqg/[…] […]) was cloned, expressed, purified, and then treated with TEV protease. Cleaved His tag was removed by purification. The binding of a biotinylated small molecule ligand of BRD9 was assessed via the LANCE® TR-FRET platform (PerkinElmer), and the compounds were assayed for inhibitory activity against this interaction.
Results: A mixture of biotinylated-ligand and SureLight™ Allophycocyanin-Streptavidin (APC-SA, PerkinElmer AD0201) in 50 mM HEPES (pH 7.4), 50 mM NaCl, 1 mM TCEP (pH 7), 0.01% (v/v) Tween-20, 0.01% (w/v) bovine serum albumin was added to a white 384-well PerkinElmer Proxiplate Plus plate. DMSO or 3-fold serially diluted compounds were then added to the Proxiplate followed by addition of Flag-BRD9. After a 10-minute incubation at room temperature, Eu—W1024 anti-FLAG (PerkinElmer, AD0273) was added. The final reaction mixture that contained 3.75 nM biotinylated ligand, 3 nM Flag-BRD9, 7.5 nM SureLight™ Allophycocyanin-Streptavidin, and 0.2 nM Eu—W1024 anti-FLAG was incubated at room temperature for 90 minutes.
The plates were then read on a PerkinElmer Envision plate reader to determine the ratio of emission at 665 nm over 615 nm. […]
On the technique in general: TR-FRET usually uses a lanthanide donor and a delayed reading to cut background.

Test [1] addresses Nanoluciferase-BRD9 fusion protein (3×FLAG-NLuc-BRD9) in SYO-1 cells (Homo sapiens (Human), UniProt Q9H8M2). Kind of test: SYO1 BRD9 NanoLuc degradation assay. It is filed as cell-based. The method in brief: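 Stable SYO-1 line expressing 3×FLAG-NLuc-BRD9, treated with 10-point 3-fold dilutions (top 1 μM final) for 6 hours. Nanoluciferase luminescence read with Nano-Glo reagent. % inhibition relative to DMSO (high control) and 1 μM reference BRD9 degrader (low control).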

[2] abbreviates: SYO-1 cells expressing 3×FLAG-NLuc-BRD9, 6 hours incubation, top dose 1 μM.

Chain of Nanoluciferase-BRD9 fusion protein (3×FLAG-NLuc-BRD9) in SYO-1 cells (Q9H8M2 whole entry, the tested form may be a part): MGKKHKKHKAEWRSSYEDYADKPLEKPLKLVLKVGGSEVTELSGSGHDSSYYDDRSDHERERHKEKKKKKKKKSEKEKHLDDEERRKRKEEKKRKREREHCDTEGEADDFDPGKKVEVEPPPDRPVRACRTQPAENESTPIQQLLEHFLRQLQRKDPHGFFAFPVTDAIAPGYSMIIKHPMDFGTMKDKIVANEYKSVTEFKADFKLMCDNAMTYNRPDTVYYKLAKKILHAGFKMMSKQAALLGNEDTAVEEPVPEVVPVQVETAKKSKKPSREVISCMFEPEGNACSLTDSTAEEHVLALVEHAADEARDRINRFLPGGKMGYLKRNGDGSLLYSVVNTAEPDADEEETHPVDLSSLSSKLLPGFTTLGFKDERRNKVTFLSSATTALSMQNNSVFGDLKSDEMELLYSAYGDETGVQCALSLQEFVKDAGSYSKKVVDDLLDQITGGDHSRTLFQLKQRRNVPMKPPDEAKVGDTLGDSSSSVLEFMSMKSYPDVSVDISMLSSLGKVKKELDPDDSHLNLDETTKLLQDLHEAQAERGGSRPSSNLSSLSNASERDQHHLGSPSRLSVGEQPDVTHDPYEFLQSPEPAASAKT
Chain of BRD9 bromodomain (Q9H8M2 133-239): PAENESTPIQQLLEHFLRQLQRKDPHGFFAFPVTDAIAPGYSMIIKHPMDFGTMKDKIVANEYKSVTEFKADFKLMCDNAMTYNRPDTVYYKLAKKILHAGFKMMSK

On BRD9 bromodomain, `CCN1CCc2c(-c3cc(OC)c(CN(C)C)c(OC)c3)cn(C)c(=O)c2C1` [Compound B15, 4-[4-[(dimethylamino)methyl]-3,5-dimethoxyphenyl]-7-ethyl-2-methyl-1,2,5,6,7,8-hexahydro-2,7-naphthyridin-1-one formic acid] showed an IC50 greater than 1000 nM.

Take `COc1cc(-c2cn(C)c(=O)c3c2CN(C(=O)N(C)C)CC3)cc(OC)c1CN(C)C` [Compound B21, 8-[4-[(dimethylamino)methyl]-3,5-dimethoxyphenyl]-N,N,6-trimethyl-5-oxo-3,4-dihydro-1H-2,6-naphthyridine-2-carboxamide]: at BRD9 bromodomain, the IC50 is greater than 100 nM. For `CNC(=O)N1CCc2c(c(-c3cc(OC)c(CN(C)C)c(OC)c3)cn(C)c2=O)C1` [Compound B18, 8-[4-[(dimethylamino)methyl]-3,5-dimethoxyphenyl]-N,6-dimethyl-5-oxo-3,4-dihydro-1H-2,6-naphthyridine-2-carboxamide], the IC50 on BRD9 bromodomain is greater than 10 nM. The compound `COc1cc(-c2cn(C)c(=O)c3c2CCN(C(=O)NC2CC2)C3)cc(OC)c1CN(C)C` [Compound B8, N-cyclopropyl-5-(4-((dimethylamino)methyl)-3,5-dimethoxyphenyl)-7-methyl-8-oxo-3,4,7,8-tetrahydro-2,7-naphthyridine-2 (1H)-carboxamide] yielded an IC50 on BRD9 bromodomain greater than 10 nM. Same read-out and setting: the figure for `COc1cc(-c2cn(C)c(=O)c3c2CCN(C(=O)NCCCCCC(=O)N[C@H](C(=O)N2C[C@H](O)C[C@H]2C(=O)NCc2ccc(-c4scnc4C)cc2)C(C)(C)C)C3)cc(OC)c1CN(C)C` [Compound D36, (2S,4R)-1-[(2S)-2-[6-(5-[4-[(dimethylamino)methyl]-3,5-dimethoxyphenyl]-7-methyl-8-oxo-3,4-dihydro-1H-2,7-naphthyridine-2-carbonylamino)hexanamido]-3,3-dimethylbutanoyl]-4-hydroxy-N-[[4-(4-methyl-1,3-thiazol-5-yl)phenyl]methyl]pyrrolidine-2-carboxamide] is greater than 10 nM. In test [1] (setting [2]), `CNC(=O)N1CCc2c(-c3cc(OC)c(CN4CC5(CC(N6CCN(c7ccc8c(c7)C(=O)N(C7CCC(=O)NC7=O)C8=O)CC6)C5)C4)c(OC)c3)cn(C)c(=O)c2C1` (stereo not shown) [Compound D146] registered an IC50 of less than 10 nM. The same measure, in the same setting: in the case of `COc1cc(-c2cn(C)c(=O)c3c2CCN(C(=O)NCCCN2CCC4(CCN4c4ccc5c(c4)C(=O)N(C4CCC(=O)NC4=O)C5=O)C2)C3)cc(OC)c1CN(C)C` (stereo not shown) [Compound D261] it was 10 to 100 nM.

In test [1] (SYO-1 cells, 6 hours, Table 6C), `CNC(=O)N1CCc2c(-c3cc(OC)c(CN4CCC5(CC4)CN(c4ccc6c(c4)C(=O)N(C4CCC(=O)NC4=O)C6)C5)c(OC)c3)cn(C)c(=O)c2C1` (stereo not shown) [Compound D308] displayed an IC50 of less than 10 nM.

As for `CNC(=O)N1CCc2c(-c3cc(OC)c(CN4CCN(CCC5CCN(c6ccc7c(c6)CN(C6CCC(=O)NC6=O)C7=O)CC5)CC4COC)c(OC)c3)cn(C)c(=O)c2C1` (stereo not shown) [Compound D329], the IC50 in test [1] (SYO-1 cells, 6 hours, Table 6C) is less than 10 nM.

On to `COc1cc(-c2cn(C)c(=O)c3c2COC3)cc(OC)c1CN1CCC(C#Cc2ccc3c(c2)C(=O)N(C2CCC(=O)NC2=O)C3)CC1` (stereo not shown) [Compound D370], for which the IC50 in test [1] (SYO-1 cells, 6 hours, Table 6C) is less than 10 nM. The same measure, in the same setting: in the case of `CNC(=O)N1CCc2c(-c3cc(OC)c(CN4CCC(CN5CCC6(CN(c7ccc8c(c7)CN(C7CCC(=O)NC7=O)C8=O)C6)C(F)(F)C5)CC4)c(OC)c3)cn(C)c(=O)c2C1` (stereo not shown) [Compound D339] it was less than 10 nM. `CNC(=O)N1CCc2c(-c3cc(OC)c(CN4CC(N5CCN(c6ccc7c(c6)C(=O)N(C6CCC(=O)NC6=O)C7=O)CC5)C4)c(OC)c3)cn(C)c(=O)c2C1` (stereo not shown) [Compound D132] displayed an IC50 in test [1] (setting [2]) of less than 10 nM. Same read-out and setting: in the case of `CNC(=O)N1CCc2c(-c3cc(OC)c(CN4CC(C#Cc5ccc6c(c5)C(=O)N(C5CCC(=O)NC5=O)C6=O)C4)c(OC)c3)cn(C)c(=O)c2C1` (stereo not shown) [Compound D142] it was less than 10 nM; in that of `COc1cc(-c2cn(C)c(=O)c3c2CCN(C(=O)NCCCCCCCCNc2cccc4nc(C)n(C5CCC(=O)NC5=O)c(=O)c24)C3)cc(OC)c1CN(C)C` (stereo not shown) [Compound D291], 10 to 100 nM; in that of `CNC(=O)N1CCc2c(-c3cc(OC)c(CN4CCC5(CC4)CN(C(=O)CCN4CCN(c6ccc7c(c6)C(=O)N(C6CCC(=O)NC6=O)C7=O)CC4)CCO5)c(OC)c3)cn(C)c(=O)c2C1` (stereo not shown) [Compound D175], 100 to 1000 nM.

In test [1] (setting [2]), `COc1cc(-c2cn(C)c(=O)c3c2CCN(C(=O)NCC2CC4CN(CCOc5ccc6c(c5)C(=O)N(C5CCC(=O)NC5=O)C6=O)CC4C2)C3)cc(OC)c1CN(C)C` (stereo not shown) [Compound D266] returned an IC50 of 10 to 100 nM. Same read-out and setting: the figure for `COc1cc(-c2cn(C)c(=O)c3c2CCN(C(=O)NCCN2CCC4(C2)CN(c2ccc5c(c2)C(=O)N(C2CCC(=O)NC2=O)C5=O)C4)C3)cc(OC)c1CN(C)C` (stereo not shown) [Compound D189] is 100 to 1000 nM. Still for that read-out and setting: in the case of `CNC(=O)N1CCc2c(-c3cc(OC)c(CN4CCN(c5ccn6c(=O)n(C7CCC(=O)NC7=O)nc6c5)CC4)c(OC)c3)cn(C)c(=O)c2C1` (stereo not shown) [Compound D61] it was 100 to 1000 nM; in that of `CNC(=O)N1CCc2c(-c3cc(OC)c(CN4CCC(CCCN5Cc6cc7c(cc6C5)C(=O)N(C5CCC(=O)NC5=O)C7=O)CC4)c(OC)c3)cn(C)c(=O)c2C1` (stereo not shown) [Compound D178], less than 10 nM. Same read-out and setting: the figure for `CNC(=O)N1CCc2c(-c3cc(OC)c(CN4CCC5(CC4)CC(Oc4ccc6c(c4)C(=O)N(C4CCC(=O)NC4=O)C6=O)C5)c(OC)c3)cn(C)c(=O)c2C1` (stereo not shown) [Compound D183] is less than 10 nM.

Turning to `CNC(=O)N1CCc2c(-c3cc(OC)c(CN4CC5(CCN(C(C)(C)C#Cc6ccc7c(c6)C(=O)N(C6CCC(=O)NC6=O)C7=O)CC5)C4)c(OC)c3)cn(C)c(=O)c2C1` (stereo not shown) [Compound D126], in test [1] (setting [2]), the IC50 lay within 100 to 1000 nM. `COCCNC(=O)N1CCc2c(-c3cc(OC)c(CN4CCN(CCC5CCN(c6ccc7c(c6)C(=O)N(C6CCC(=O)NC6=O)C7=O)CC5)CC4)c(OC)c3)cn(C)c(=O)c2C1` (stereo not shown) [Compound D43] yielded an IC50 in test [1] (setting [2]) of less than 10 nM. Turning to `CNC(=O)N1CCc2c(-c3cc(Cl)c(CN4CCN(CCC5CCN(c6ccc7c(c6)CN(C6CCC(=O)NC6=O)C7=O)CC5)CC4)c(OC)c3)cn(C)c(=O)c2C1` (stereo not shown) [Compound D55], the IC50 in test [1] (setting [2]) is less than 10 nM. On the same count and under the same terms, in the case of `CNC(=O)N1CCc2c(-c3cc(OC)c(CNC4CC45CCN(c4ccc6c(c4)C(=O)N(C4CCC(=O)NC4=O)C6=O)C5)c(OC)c3)cn(C)c(=O)c2C1` (stereo not shown) [Compound D156] it was less than 10 nM. `CNC(=O)N1CCc2c(-c3cc(OC)c(CN4CCC(C(N5CCC6(CC5)CC(Oc5ccc7c(c5)C(=O)N(C5CCC(=O)NC5=O)C7=O)C6)C(F)(F)F)CC4)c(OC)c3)cn(C)c(=O)c2C1` (stereo not shown) [Compound D343] showed an IC50 in test [1] (SYO-1 cells, 6 hours, Table 6C) of no less than 1000 nM. Turning to `CNC(=O)N1CCc2c(-c3cc(OC)c(CN4CCN(CCC5CCN(c6ccc7c(c6)C(=O)N(C6CCC(=O)NC6=O)C7=O)CC5)C5(CCC5)C4)c(OC)c3)cn(C)c(=O)c2C1` (stereo not shown) [Compound D95], the IC50 in test [1] (setting [2]) was less than 10 nM. The same measure, in the same setting: the figure for `COc1cc(-c2cn(C)c(=O)c3c2CCN(C(=O)NCCCN2CCC4(CC2)CCN(c2ccc5c(c2)C(=O)N(C2CCC(=O)NC2=O)C5=O)C4)C3)cc(OC)c1CN(C)C` (stereo not shown) [Compound D236] is 10 to 100 nM; for `COc1cc(-c2cn(C)c(=O)c3c2CCN(C(=O)NCC2CC4CN(c5ccc6c(c5)C(=O)N([C@H]5CCC(=O)NC5=O)C6=O)CC4C2)C3)cc(OC)c1CN(C)C` (stereo partly shown) [Compound D122] it is 10 to 100 nM. Consider `CNC(=O)N1CCc2c(-c3cc(OC)c(CN4CCC5(CN(c6ccc7c(c6)C(=O)N(C6CCC(=O)NC6=O)C7)C5)C(F)(F)C4)c(OC)c3)cn(C)c(=O)c2C1` (stereo not shown) [Compound D306], for which, in test [1] (SYO-1 cells, 6 hours, Table 6C), the IC50 is less than 10 nM. In test [1] (SYO-1 cells, 6 hours, Table 6A), `CNC(=O)N1CCc2c(-c3cc(OC)c(CN4CCN(C(=O)COc5cccc6c5C(=O)N(C5CCC(=O)NC5=O)C6=O)CC4)c(OC)c3)cn(C)c(=O)c2C1` (stereo not shown) [Compound D2, 5-(4-[[4-(2-[[2-(2,6-dioxopiperidin-3-yl)-1,3-dioxoisoindol-4-yl]oxy]acetyl)piperazin-1-yl]methyl]-3,5-dimethoxyphenyl)-N,7-dimethyl-8-oxo-3,4-dihydro-1H-2,7-naphthyridine-2-carboxamide] gave an IC50 greater than 10 nM.

Compound `CNC(=O)N1CCc2c(-c3cc(OC)c(CN4CCC(CCN5CCN(c6ccc7nn(C8CCC(=O)NC8=O)c(=O)n7c6)CC5)CC4)c(OC)c3)cn(C)c(=O)c2C1` (stereo not shown) [Compound D57] showed an IC50 in test [1] (setting [2]) of 10 to 100 nM. Compound `COc1cc(-c2cn(C)c(=O)c3c2CCC3)cc(OC)c1CN1CCC2(CC1)CN(c1ccc3c(c1)C(=O)N(C1CCC(=O)NC1=O)C3=O)C2` (stereo not shown) [Compound D363] came in with an IC50 in test [1] (SYO-1 cells, 6 hours, Table 6C) of less than 10 nM. In turn, `COc1cc(-c2cn(C)c(=O)c3c2CCN(C(=O)NCCN2CCC(OCC4CCN(c5ccc6c(c5)C(=O)N(C5CCC(=O)NC5=O)C6=O)CC4)C2)C3)cc(OC)c1CN(C)C` (stereo not shown) [Compound D206] came in with an IC50 in test [1] (setting [2]) of 100 to 1000 nM. `CNC(=O)N1CCc2c(-c3cc(OC)c(CN4CCN(CCN5CCC(c6ccc7c(c6)C(=O)N(C6CCC(=O)NC6=O)C7=O)CC5)CC4)c(OC)c3)cn(C)c(=O)c2C1` (stereo not shown) [Compound D117] registered an IC50 in test [1] (setting [2]) of less than 10 nM.
